The values that follow come from patent US11186554B2, “Non-fused tricyclic compounds” (VIVACE THERAPEUTICS, INC., priority 2017, dated 2021).

Each structure is given as a SMILES string.

The assay deals with firefly luciferase activity. The assay is described as follows: Dual-Glo firefly/renilla luciferase reporter assay in cells. The class given is cell-based. Conditions: 24 hrs compound treatment, starting from 3 uM, 1:3 dilution, 10 points; read-out: Firefly Luciferase IC50.
In general, IC50 refers to the concentration at which inhibition is half-maximal. Take `FC(F)(F)c1ccc(Nc2ccccc2-c2nnn(C3COC3)n2)cc1` [Compound 123, 2-[2-(oxetan-3-yl)tetrazol-5-yl]-N-[4-(trifluoromethyl)phenyl]aniline]: the concentration for half-maximal inhibition (IC50) was below 100 nM.

Take `NC(=O)OCCn1nnc(-c2ccccc2Nc2ccc(C(F)(F)F)cc2)n1` [Compound 124, 2-[5-[2-[4-(trifluoromethyl)anilino]phenyl]tetrazol-2-yl]ethyl carbamate]: the IC50 was below 100 nM.

`CC(CO)n1nnc(-c2ccccc2Nc2ccc(C(F)(F)F)cc2)n1` (stereo not shown) [Compound 125, 2-[5-[2-[4-(trifluoromethyl)anilino]phenyl]tetrazol-2-yl]propan-1-ol]: the IC50 was below 100 nM.

Regarding `FCCCn1nnc(-c2ccccc2Nc2ccc(C(F)(F)F)cc2)n1` [Compound 126, 2-[2-(3-fluoropropyl)tetrazol-5-yl]-N-[4-(trifluoromethyl)phenyl]aniline], the half-maximal inhibitory concentration (IC50) lay within 100 to 1000 nM.

As to `OC(Cn1nnc(-c2ccccc2Nc2ccc(C(F)(F)F)cc2)n1)C1CC1` (stereo not shown) [Compound 127, 1-cyclopropyl-2-[5-[2-[4-(trifluoromethyl)anilino]phenyl]tetrazol-2-yl]ethanol], the half-maximal inhibitory concentration (IC50) was below 100 nM.

On to `CC(C)C(=O)Cn1nnc(-c2ccccc2Nc2ccc(C(F)(F)F)cc2)n1` [Compound 128, 3-methyl-1-[5-[2-[4-(trifluoromethyl)anilino]phenyl]tetrazol-2-yl]butan-2-one], for which the IC50 was in the range of 100 to 1000 nM.

As to `COCC(C)n1nnc(-c2ccccc2Nc2ccc(C(F)(F)F)cc2)n1` (stereo not shown) [Compound 129, 2-(2-(1-methoxypropan-2-yl)-2H-tetrazol-5-yl)-N-(4-(trifluoromethyl)phenyl) Aniline], the IC50 is below 100 nM.

With `O=C(Cn1nnc(-c2ccccc2Nc2ccc(C(F)(F)F)cc2)n1)c1ccccc1` [Compound 130, 1-phenyl-2-[5-[2-[4-(trifluoromethyl)anilino]phenyl]tetrazol-2-yl]ethanone], the 50% inhibitory concentration (IC50) was in the range of 1000 to 5000 nM.

Consider `OC(Cn1nnc(-c2ccccc2Nc2ccc(C(F)(F)F)cc2)n1)C(F)(F)F` (stereo not shown) [Compound 131, 1,1,1-trifluoro-3-[5-[2-[4-(trifluoromethyl)anilino]phenyl]tetrazol-2-yl]propan-2-ol], for which the IC50 is below 100 nM.

Consider `C[C@H](c1ccccc1)N1C(=O)OC[C@H]1Cn1nnc(-c2ccccc2Nc2ccc(C(F)(F)F)cc2)n1` [Compound 132, (4R)-3-[(1R)-1-phenylethyl]-4-[[5-[2-[4-(trifluoromethyl)anilino]phenyl]tetrazol-2-yl]methyl]oxazolidin-2-one], for which the IC50 lay in the range of 100 to 1000 nM.

With `OC1(Cn2nnc(-c3ccccc3Nc3ccc(C(F)(F)F)cc3)n2)CCCCC1` [Compound 133, 1-[[5-[2-[4-(trifluoromethyl)anilino]phenyl]tetrazol-2-yl]methyl]cyclohexanol], the concentration for half-maximal inhibition (IC50) lay in the range of 100 to 1000 nM.

As to `OC1(Cn2nnc(-c3ccccc3Nc3ccc(C(F)(F)F)cc3)n2)CCNCC1` [Compound 135, 4-[[5-[2-[4-(trifluoromethyl)anilino]phenyl]tetrazol-2-yl]methyl]piperidin-4-ol], the half-inhibitory concentration (IC50) is 1000 to 5000 nM.

On to `O=C1NCC(Cn2nnc(-c3ccccc3Nc3ccc(C(F)(F)F)cc3)n2)O1` (stereo not shown) [Compound 136, 5-((5-(2-((4-(trifluoromethyl)phenyl)amino)phenyl)-2H-tetrazol-2-yl)methyl)oxazolidin-2-one], for which the IC50 was 100 to 1000 nM.

Turning to `OC1(Cn2nnc(-c3ccccc3Nc3ccc(C(F)(F)F)cc3)n2)CCOCC1` [Compound 138, 4-[[5-[2-[4-(trifluoromethyl)anilino]phenyl]tetrazol-2-yl]methyl]tetrahydropyran-4-ol], the concentration for half-maximal inhibition (IC50) fell in the range of 100 to 1000 nM.

As to `CCC(O)Cn1nnc(-c2ccccc2Nc2ccc(C(F)(F)F)cc2)n1` (stereo not shown) [Compound 139, 1-(5-(2-((4-(trifluoromethyl)phenyl)amino)phenyl)-2H-tetrazol-2-yl)butan-2-ol], the IC50 was below 100 nM.

For `FC(F)(F)c1ccc(Nc2ccccc2-c2nnn(-c3ccccn3)n2)cc1` [Compound 140, 2-[2-(2-pyridyl)tetrazol-5-yl]-N-[4-(trifluoromethyl)phenyl]aniline], the IC50 lay in the range of 100 to 1000 nM.

With `CC(C)C(O)Cn1nnc(-c2ccccc2Nc2ccc(C(F)(F)F)cc2)n1` (stereo not shown) [Compound 141, 3-methyl-1-[5-[2-[4-(trifluoromethyl)anilino]phenyl]tetrazol-2-yl]butan-2-ol], the IC50 lay within 100 to 1000 nM.

Turning to `OC1(Cn2nnc(-c3ccccc3Nc3ccc(C(F)(F)F)cc3)n2)CCCOC1` (stereo not shown) [Compound 142, 3-[[5-[2-[4-(trifluoromethyl)anilino]phenyl]tetrazol-2-yl]methyl]tetra hydropyran-3-ol], the concentration for half-maximal inhibition (IC50) was in the range of 100 to 1000 nM.

Regarding `OC(Cn1nnc(-c2ccccc2Nc2ccc(C(F)(F)F)cc2)n1)c1ccccc1` (stereo not shown) [Compound 143, 1-phenyl-2-[5-[2-[4-(trifluoromethyl)anilino]phenyl]tetrazol-2-yl]ethanol], the IC50 lay within 1000 to 5000 nM.

Regarding `CC(C)(C)OC(=O)N1CCCC(O)(Cn2nnc(-c3ccccc3Nc3ccc(C(F)(F)F)cc3)n2)C1` (stereo not shown) [Compound 147], the IC50 is 1000 to 5000 nM.

On to `OC1(Cn2nnc(-c3ccccc3Nc3ccc(C(F)(F)F)cc3)n2)CCOC1` (stereo not shown) [Compound 151, 3-[[5-[2-[4-(trifluoromethyl)anilino]phenyl]tetrazol-2-yl]methyl]tetrahydro furan-3-ol], for which the IC50 was below 100 nM.

Take `OC1(Cn2nnc(-c3ccccc3Nc3ccc(C(F)(F)F)cc3)n2)CCCC1` [Compound 152, 1-((5-(2-((4-(Trifluoromethyl)phenyl)amino)phenyl)-2H-tetrazol-2-yl)methyl)cyclopentanol]: the IC50 was below 100 nM.

On to `OC1(Cn2nnc(-c3ccccc3Nc3ccc(C(F)(F)F)cc3)n2)CCNC1` (stereo not shown) [Compound 153, 3-((5-(2-((4-(trifluoromethyl)phenyl)amino)phenyl)-2H-tetrazol-2-yl)methyl)pyrrolidin-3-ol], for which the IC50 fell in the range of 100 to 1000 nM.

As to `CC(=O)N1CCC(O)(Cn2nnc(-c3ccccc3Nc3ccc(C(F)(F)F)cc3)n2)C1` (stereo not shown) [Compound 154, 1-(3-hydroxy-3-((5-(2-((4-(trifluoromethyl)phenyl)amino)phenyl)-2H-tetrazol-2-yl)methyl)pyrrolidin-1-yl)ethanone], the IC50 lay in the range of 100 to 1000 nM.

`CC(=O)N1CCCC(O)(Cn2nnc(-c3ccccc3Nc3ccc(C(F)(F)F)cc3)n2)C1` (stereo not shown) [Compound 155, 1-(3-hydroxy-3-((5-(2-((4-(trifluoromethyl)phenyl)amino)phenyl)-2H-tetrazol-2-yl)methyl)piperidin-1-yl) Ethanone]: the IC50 fell in the range of 100 to 1000 nM.

`OC1(Cn2nnc(-c3ccccc3Nc3ccc(C(F)(F)F)cc3)n2)CCCNC1` (stereo not shown) [Compound 156, 3-((5-(2-((4-(trifluoromethyl)phenyl)amino)phenyl)-2H-tetrazol-2-yl)methyl) piperidin-3-ol]: the IC50 fell in the range of 100 to 1000 nM.

With `OC1(Cn2nnc(-c3ccccc3Nc3ccc(C(F)(F)F)cc3)n2)CNC1` [Compound 157, 3-[[5-[2-[4-(trifluoromethyl)anilino]phenyl]tetrazol-2-yl]methyl]azetidin-3-ol], the IC50 was 100 to 1000 nM.

Turning to `O=C1N[C@H](Cn2nnc(-c3ccccc3Nc3ccc(C(F)(F)F)cc3)n2)CO1` [Compound 158, (R)-4-((5-(2-((4-(trifluoromethyl)phenyl)amino)phenyl)-2H-tetrazol-2-yl)methyl)oxazolidin-2-one], the IC50 was 100 to 1000 nM.

As to `CC(=O)N1CC(O)(Cn2nnc(-c3ccccc3Nc3ccc(C(F)(F)F)cc3)n2)C1` [Compound 161, 1-[3-hydroxy-3-[[5-[2-[4-(trifluoromethyl)anilino]phenyl]tetrazol-2-yl]methyl]azetidin-1-yl]ethanone], the IC50 lay in the range of 100 to 1000 nM.

As to `CC(=O)OC1(Cn2nnc(-c3ccccc3Nc3ccc(C(F)(F)F)cc3)n2)CN(C(C)=O)C1` [Compound 162, [1-acetyl-3-[[5-[2-[4-(trifluoromethyl)anilino]phenyl]tetrazol-2-yl]methyl]azetidin-3-yl]acetate], the IC50 was in the range of 1000 to 5000 nM.

In the case of `FC(F)(F)c1ccc(Nc2ccccc2-c2nnn(-c3cccnc3)n2)cc1` [Compound 165, 2-[2-(3-pyridyl)tetrazol-5-yl]-N-[4-(trifluoromethyl)phenyl]aniline], the half-inhibitory concentration (IC50) lay in the range of 1000 to 5000 nM.

On to `FC(F)(F)c1ccc(Nc2ccccc2-c2nnn(CC3COC3)n2)cc1` [Compound 166, 2-(2-(oxetan-3-ylmethyl)-2H-tetrazol-5-yl)-N-(4-(trifluoromethyl)phenyl) Aniline], for which the half-maximal inhibitory concentration (IC50) lay within 100 to 1000 nM.

Turning to `O=C1NCC(Cn2nnc(-c3ccccc3Nc3ccc(C(F)(F)F)cc3)n2)N1` (stereo not shown) [Compound 167, 4-((5-(2-((4-(trifluoromethyl)phenyl)amino)phenyl)-2H-tetrazol-2-yl)methyl)imidazolidin-2-one], the 50% inhibitory concentration (IC50) is 100 to 1000 nM.

Turning to `OC1(Cn2nnc(-c3ccccc3Nc3ccc(C(F)(F)F)cc3)n2)CCC1` [Compound 169, 1-((5-(2-((4-(Trifluoromethyl)phenyl)amino)phenyl)-2H-tetrazol-2-yl)methyl)cyclobutanol], the half-maximal inhibitory concentration (IC50) is below 100 nM.

As to `FC(F)(F)c1ccc(Nc2ccccc2-c2nnn(CC3CCC3)n2)cc1` [Compound 170, 2-(2-(Cyclobutylmethyl)-2H-tetrazol-5-yl)-N-(4-(trifluoromethyl)phenyl)aniline], the IC50 was in the range of 100 to 1000 nM.

As for `Cn1nnc(-c2ccccc2Nc2ccc(C(F)(F)F)cc2)n1` [Compound 171, 2-(2-methyltetrazol-5-yl)-N-[4-(trifluoromethyl)phenyl]aniline], the 50% inhibitory concentration (IC50) was in the range of 100 to 1000 nM.

For `OC1(Cn2nnc(-c3ccccc3Nc3ccc(C(F)(F)F)cc3)n2)CCN(c2ccccc2)C1` (stereo not shown) [Compound 172], the concentration for half-maximal inhibition (IC50) lay in the range of 1000 to 5000 nM.

With `COCCn1nnc(-c2ccccc2Nc2ccc(C(F)(F)F)cc2)n1` [Compound 173, 2-(2-(2-methoxyethyl)-2H-tetrazol-5-yl)-N-(4-(trifluoromethyl)phenyl)aniline], the IC50 is below 100 nM.

As for `OCCn1nnc(-c2cc(F)ccc2Nc2ccc(C(F)(F)F)cc2)n1` [Compound 175, 2-[5-[5-fluoro-2-[4-(trifluoromethyl)anilino]phenyl]tetrazol-2-yl]ethanol], the IC50 is below 100 nM.

As to `OC1(Cn2nnc(-c3ccccc3Nc3ccc(C(F)(F)F)cc3)n2)CCCN(c2ccccc2)C1` (stereo not shown) [Compound 176], the IC50 was in the range of 100 to 1000 nM.
